Experimental data as given in ChEMBL document CHEMBL1201862, “PubChem BioAssay data set” (2004).
The source made the active and inactive calls.

How the values were obtained:
[1] = target: Benomyl/methotrexate resistance protein (Candida albicans, UniProt P28873); assay: CaMdr1 efflux pump inhibitor potency, dose response, singleplex, Cherry Pick1 hits (AID 588608); assay type: functional
[2] = target: Multidrug resistance protein CDR1 (Candida albicans, UniProt P43071); assay: CaCDR1 efflux pump inhibitors in yeast, dose response, S. cerevisiae AD1-8u, singleplex, Cherry Pick1 hits (AID 588606); assay type: functional
[3] = target: Protein disulfide-isomerase (Homo sapiens, UniProt P07237); assay: PDI inhibitors, insulin aggregation turbidity, dose response, biochemical, absorbance, cherry-picked samples (AID 602350); assay type: functional
[4] = Luminescence Cell-Based Dose Response HTS to Identify Inhibitors of Luciferase Translation or Activity in H4-C Neuroglioblastoma Cells. [Related pubchem assays: 1813 (Primary HTS), 1827 (Project Summary)]; assay type: functional
[5] = Luminescence Cell-Based Dose Response HTS to Identify Activators of Luciferase Translation or Activity in H4-C Neuroglioblastoma Cells. [Related pubchem assays: 1829 (Project Summary), 1814 (Primary HTS)]; assay type: functional
[6] = inhibitors of firefly luciferase expression or activity, dose response, H4 neuroglioma cells, luminescence (AID 1990); assay type: functional, cell-based
[7] = luciferase reporter signal reduction – luminescence, H4-C neuroglioblastoma cells, dose response (AID 2458); assay type: functional, cell-based;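 also: H4 neuroglioblastoma cells stably carrying a luciferase reporter gene fusion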
[8] = Luminescence Cell-Based Dose Response HTS to Identify Activators of 5'UTR Stem-Loop Driven Prion Protein mRNA Translation in H4-C Neuroglioblastoma Cells. [Related pubchem assays: 1829 (Project Summary), 1814 (Primary HTS)]; assay type: functional
[9] = Luminescence Cell-Based Dose HTS Response to Identify Inhibitors of 5'UTR Stem-Loop Driven Prion Protein mRNA Translation in H4-C Neuroglioblastoma Cells. [Related pubchem assays (depositor defined):AID1814, AID1827]; assay type: functional
BJ [10] = assay: cytotoxicity toward BJ-TERT fibroblasts, dose response, cell-based, RAS-independent, luminescence (AID 1933); assay type: functional; settings: Homo sapiens
cells = assay type: functional, cell-based
[11] = Luminescence Cell-Based Dose Response HTS to Identify Inhibitors of 5'UTR Stem-Loop Driven Prion Protein mRNA Translation in H4 Neuroglioblastoma Cells. [Related pubchem assays: 1827 (Project Summary), 1813 (Primary HTS)]; assay type: functional
[12] = inhibitors of SNCA 5'UTR-driven reporter translation, confirmation, H4 neuroglioma cells, luminescence (AID 1988); assay type: functional, cell-based
BJ [13] = assay: cells; assay type: functional, cell-based; settings: Homo sapiens
[14] = Luminescence Cell-Based Dose Confirmation HTS to Identify Inhibitors of 5'UTR Stem-Loop Driven Alpha-Synuclein mRNA Translation in H4 Neuroglioblastoma Cells. [Related pubchem assays: 1827 (Project Summary), 1813 (Primary HTS)]; assay type: functional
BJ [15] = assay: cytotoxicity toward BJ-TERT-LT-ST fibroblasts, dose response, cell-based, RAS-independent, luminescence (AID 1935); assay type: functional; settings: Homo sapiens;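 also: BJ fibroblasts immortalized with TERT plus LT and ST oncogenes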
[16] = cytotoxicity toward DRD oncogenic fibroblasts, dose response, cell-based, non-viral oncogenic, luminescence (AID 1934); assay type: functional; settings: Homo sapiens
[17] = inhibitors of SNCA 5'UTR-driven translation, confirmation, luminescence, H4 neuroglioblastoma cells, dose confirmation (AID 2454); assay type: functional, cell-based;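 also: H4 neuroglioblastoma cells carrying an alpha-synuclein 5'UTR luciferase reporter; potency for inhibition of the luciferase signal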
BJ [18] = assay: cytotoxicity toward Ras-transformed BJeLR fibroblasts, dose response, cell-based, alamar blue fluorescence, cherrypicked samples (AID 2631); assay type: functional; settings: Homo sapiens;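 also: confirmatory dose-response assay in RAS-dependent BJ fibroblasts engineered with TERT, LT and ST, with cytotoxicity read by fluorescence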
Beta-lactamase [19] = target: Beta-lactamase (Pseudomonas aeruginosa, UniProt Q79MP6);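 also: biochemical dose-response test of metallo-beta-lactamase enzyme inhibition, read out by epi-absorbance; purified recombinant IMP-1 metallo-beta-lactamase with nitrocefin as substrate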
Sequence of Beta-lactamase (Pseudomonas aeruginosa, UniProt Q79MP6) (Q79MP6 whole entry): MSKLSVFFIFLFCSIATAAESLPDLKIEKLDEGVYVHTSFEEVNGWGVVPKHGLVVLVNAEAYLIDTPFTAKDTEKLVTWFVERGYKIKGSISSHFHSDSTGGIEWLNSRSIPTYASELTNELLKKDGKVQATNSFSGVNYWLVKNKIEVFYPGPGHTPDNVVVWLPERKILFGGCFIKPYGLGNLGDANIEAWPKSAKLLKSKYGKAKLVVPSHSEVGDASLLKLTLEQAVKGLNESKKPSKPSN

Beta-lactamase [20] = target: Beta-lactamase (Salmonella choleraesuis (strain SC-B67), UniProt Q5J463)
ORF 73 = ORF 73 (Human herpesvirus 8, UniProt O40947); assay: inhibitors of C-LANA binding to LBS DNA, dose response, biochemical, fluorescence polarization, cherry-picked samples (AID 504725); set-up: species or system Human gammaherpesvirus 8;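 also: fluorescence polarization of a labeled DNA duplex reporting LANA DNA binding; potency is for inhibitors that block LANA binding to the DNA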
Sequence of ORF 73 (O40947 whole entry): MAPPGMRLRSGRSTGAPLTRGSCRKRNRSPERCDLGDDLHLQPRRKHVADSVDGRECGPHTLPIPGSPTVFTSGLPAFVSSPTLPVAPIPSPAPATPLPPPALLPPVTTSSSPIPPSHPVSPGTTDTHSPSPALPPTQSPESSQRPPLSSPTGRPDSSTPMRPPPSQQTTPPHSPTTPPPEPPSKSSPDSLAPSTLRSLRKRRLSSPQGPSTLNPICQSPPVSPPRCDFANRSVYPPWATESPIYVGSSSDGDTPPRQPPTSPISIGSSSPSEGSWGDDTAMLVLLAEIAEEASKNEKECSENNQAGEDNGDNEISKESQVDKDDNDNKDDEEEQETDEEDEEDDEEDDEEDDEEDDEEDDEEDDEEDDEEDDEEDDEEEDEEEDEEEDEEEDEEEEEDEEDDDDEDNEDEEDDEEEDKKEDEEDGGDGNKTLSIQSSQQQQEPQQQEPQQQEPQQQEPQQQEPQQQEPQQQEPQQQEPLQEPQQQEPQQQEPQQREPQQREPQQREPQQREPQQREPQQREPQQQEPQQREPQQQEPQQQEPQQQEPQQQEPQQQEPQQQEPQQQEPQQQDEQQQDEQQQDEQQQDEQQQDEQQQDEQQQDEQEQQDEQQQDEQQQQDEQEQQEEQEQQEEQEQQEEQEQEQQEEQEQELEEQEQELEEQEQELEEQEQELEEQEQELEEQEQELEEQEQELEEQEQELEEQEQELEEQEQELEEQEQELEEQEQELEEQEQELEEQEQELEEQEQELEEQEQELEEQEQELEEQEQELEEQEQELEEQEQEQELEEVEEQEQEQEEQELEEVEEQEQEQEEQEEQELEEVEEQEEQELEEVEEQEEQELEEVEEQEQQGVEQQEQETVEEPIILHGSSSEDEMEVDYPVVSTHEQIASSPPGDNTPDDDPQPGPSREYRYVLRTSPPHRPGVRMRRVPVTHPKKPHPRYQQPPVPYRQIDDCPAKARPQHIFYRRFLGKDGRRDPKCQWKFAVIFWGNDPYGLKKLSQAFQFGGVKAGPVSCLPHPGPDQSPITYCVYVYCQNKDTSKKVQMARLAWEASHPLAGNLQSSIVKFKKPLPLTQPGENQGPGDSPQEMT

Insulin-degrading enzyme [21] = target: T1, Insulin-degrading enzyme (Homo sapiens, UniProt P14735); assay: activators of recombinant IDE enzyme, dose response, counter-screen for IDE activator project, biochemical, fluorescence polarization (AID 588681)
T1 sequence (P14735 whole entry): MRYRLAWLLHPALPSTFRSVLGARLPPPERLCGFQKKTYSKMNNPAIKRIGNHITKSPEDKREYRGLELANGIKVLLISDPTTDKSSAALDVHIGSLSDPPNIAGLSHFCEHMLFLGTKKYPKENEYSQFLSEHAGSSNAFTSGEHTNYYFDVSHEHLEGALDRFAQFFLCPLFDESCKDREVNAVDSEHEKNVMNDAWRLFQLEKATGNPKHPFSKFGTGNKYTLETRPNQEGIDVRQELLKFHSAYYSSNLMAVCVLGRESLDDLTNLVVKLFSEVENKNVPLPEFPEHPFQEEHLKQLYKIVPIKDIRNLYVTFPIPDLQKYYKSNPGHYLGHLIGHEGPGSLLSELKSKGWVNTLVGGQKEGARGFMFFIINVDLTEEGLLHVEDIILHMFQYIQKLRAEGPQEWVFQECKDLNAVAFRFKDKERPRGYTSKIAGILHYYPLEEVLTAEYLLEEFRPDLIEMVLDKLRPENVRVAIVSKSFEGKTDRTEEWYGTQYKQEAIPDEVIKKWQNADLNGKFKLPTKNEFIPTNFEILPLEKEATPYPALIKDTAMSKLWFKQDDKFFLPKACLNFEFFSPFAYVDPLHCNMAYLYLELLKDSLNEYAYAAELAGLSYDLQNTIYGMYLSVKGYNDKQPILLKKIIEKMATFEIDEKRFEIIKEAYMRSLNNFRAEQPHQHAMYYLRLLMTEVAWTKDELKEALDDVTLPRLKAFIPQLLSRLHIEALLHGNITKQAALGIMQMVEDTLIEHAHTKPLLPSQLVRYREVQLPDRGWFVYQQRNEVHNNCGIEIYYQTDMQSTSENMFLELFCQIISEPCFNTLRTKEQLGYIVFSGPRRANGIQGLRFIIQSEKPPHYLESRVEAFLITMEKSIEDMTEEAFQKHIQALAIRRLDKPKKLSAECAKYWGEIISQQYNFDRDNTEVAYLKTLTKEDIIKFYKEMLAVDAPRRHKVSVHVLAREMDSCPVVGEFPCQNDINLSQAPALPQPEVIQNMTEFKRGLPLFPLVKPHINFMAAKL

Insulin-degrading enzyme [22] = target: T1, Insulin-degrading enzyme; assay: activators of endogenous IDE in HEK cells, dose response, cell-based, fluorescence polarization (AID 588439); assay type: functional
HEK293 [23] = assay: HEK cell cytotoxicity by LDH release, dose response, cytotoxicity control for IDE activator project, fluorescence, HEK cells (AID 588440); assay type: functional, cell-based; settings: Homo sapiens;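 also: cytotoxicity by LDH release measuring loss of membrane integrity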
HEK293 [24] = assay: optical interference in Abeta FP readout, dose response, artefact control for IDE activator project, biochemical, fluorescence polarization (AID 588442); assay type: functional, cell-based; settings: Homo sapiens
Large T antigen = Large T antigen (Simian virus 40, UniProt P03070); assay type: functional, Betapolyomavirus macacae;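 also: Confirmatory-stage PubChem screen for compounds that inhibit SV40 T antigen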
Sequence of Large T antigen (P03070 whole entry): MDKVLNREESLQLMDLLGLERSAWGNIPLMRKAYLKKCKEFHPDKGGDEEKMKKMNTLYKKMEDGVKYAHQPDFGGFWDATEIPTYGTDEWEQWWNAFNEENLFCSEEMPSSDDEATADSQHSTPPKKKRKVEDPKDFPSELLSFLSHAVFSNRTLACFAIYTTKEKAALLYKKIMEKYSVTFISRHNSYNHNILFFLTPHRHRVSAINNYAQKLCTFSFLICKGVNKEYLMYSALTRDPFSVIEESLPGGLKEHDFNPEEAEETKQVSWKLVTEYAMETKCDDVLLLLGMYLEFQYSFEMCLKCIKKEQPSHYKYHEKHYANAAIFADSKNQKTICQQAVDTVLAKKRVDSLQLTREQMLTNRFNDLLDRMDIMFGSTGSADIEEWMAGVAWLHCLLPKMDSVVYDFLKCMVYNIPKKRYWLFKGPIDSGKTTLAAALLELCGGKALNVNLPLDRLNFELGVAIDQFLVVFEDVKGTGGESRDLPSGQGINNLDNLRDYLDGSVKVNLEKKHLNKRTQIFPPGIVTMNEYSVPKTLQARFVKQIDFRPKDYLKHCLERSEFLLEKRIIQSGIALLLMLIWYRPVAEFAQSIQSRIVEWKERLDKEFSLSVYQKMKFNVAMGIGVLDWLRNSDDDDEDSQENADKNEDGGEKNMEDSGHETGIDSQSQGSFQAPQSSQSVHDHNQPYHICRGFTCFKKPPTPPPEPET

[25] = target: T2, DNA dC->dU-editing enzyme APOBEC-3A (Homo sapiens, UniProt P31941); assay: APOBEC3A DNA deaminase inhibitors, dose response, biochemical (AID 504722); assay type: functional
T2 sequence (P31941 whole entry): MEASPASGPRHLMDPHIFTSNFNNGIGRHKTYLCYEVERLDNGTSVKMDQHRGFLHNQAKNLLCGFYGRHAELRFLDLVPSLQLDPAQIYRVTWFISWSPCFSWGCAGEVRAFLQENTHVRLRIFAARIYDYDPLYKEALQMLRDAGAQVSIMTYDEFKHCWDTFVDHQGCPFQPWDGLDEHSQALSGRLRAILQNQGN

[26] = target: T3, DNA dC->dU-editing enzyme APOBEC-3G (Homo sapiens, UniProt Q9HC16); assay: Dose Response confirmation of small molecule APOBEC3G DNA Deaminase Inhibitors via a fluorescence-based single-stranded DNA deaminase assay. [Related pubchem assays (depositor defined):AID493012, AID493028]; assay type: functional
T3 sequence (Q9HC16 whole entry): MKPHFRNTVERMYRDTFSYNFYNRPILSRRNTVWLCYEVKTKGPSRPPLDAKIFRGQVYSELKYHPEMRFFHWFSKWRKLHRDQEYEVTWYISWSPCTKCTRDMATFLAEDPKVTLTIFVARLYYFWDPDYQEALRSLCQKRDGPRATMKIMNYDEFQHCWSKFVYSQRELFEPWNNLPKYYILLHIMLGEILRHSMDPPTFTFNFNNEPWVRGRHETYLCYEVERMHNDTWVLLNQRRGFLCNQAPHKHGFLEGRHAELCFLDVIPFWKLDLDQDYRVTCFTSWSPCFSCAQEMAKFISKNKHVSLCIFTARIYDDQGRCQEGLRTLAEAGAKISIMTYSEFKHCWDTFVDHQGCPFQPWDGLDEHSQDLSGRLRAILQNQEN

[27] = target: T2, DNA dC->dU-editing enzyme APOBEC-3A; assay: SAR analysis of small molecule inhibitors of APOBEC3A DNA Deaminase via a fluorescence-based single-stranded DNA deaminase assay - Set 2.; assay type: functional; settings: read-out: IC50_Mean
[28] = target: T3, DNA dC->dU-editing enzyme APOBEC-3G; assay: SAR analysis of small molecule inhibitors of APOBEC3G DNA Deaminase via a fluorescence-based single-stranded DNA deaminase assay - Set 2.; assay type: functional; settings: read-out: IC50_Mean
[29] = target: T3, DNA dC->dU-editing enzyme APOBEC-3G; assay: APOBEC3G deaminase inhibitors, SAR follow-up, biochemical, fluorescence, single-stranded DNA substrate (AID 602136); assay type: functional; settings: read-out: IC50_Mean
[30] = target: T2, DNA dC->dU-editing enzyme APOBEC-3A; assay: SAR analysis of small molecule inhibitors of APOBEC3A DNA Deaminase via a fluorescence-based single-stranded DNA deaminase assay.; assay type: functional; settings: read-out: IC50_Mean
DNA topoisomerase = DNA topoisomerase (Yersinia pestis, UniProt A0A2S9PM60); assay: Y. pestis Topo-I inhibitors, cleavage product readout, dose response, biochemical, cherry-pick (AID 588525)
Sequence of DNA topoisomerase (A0A2S9PM60 whole entry): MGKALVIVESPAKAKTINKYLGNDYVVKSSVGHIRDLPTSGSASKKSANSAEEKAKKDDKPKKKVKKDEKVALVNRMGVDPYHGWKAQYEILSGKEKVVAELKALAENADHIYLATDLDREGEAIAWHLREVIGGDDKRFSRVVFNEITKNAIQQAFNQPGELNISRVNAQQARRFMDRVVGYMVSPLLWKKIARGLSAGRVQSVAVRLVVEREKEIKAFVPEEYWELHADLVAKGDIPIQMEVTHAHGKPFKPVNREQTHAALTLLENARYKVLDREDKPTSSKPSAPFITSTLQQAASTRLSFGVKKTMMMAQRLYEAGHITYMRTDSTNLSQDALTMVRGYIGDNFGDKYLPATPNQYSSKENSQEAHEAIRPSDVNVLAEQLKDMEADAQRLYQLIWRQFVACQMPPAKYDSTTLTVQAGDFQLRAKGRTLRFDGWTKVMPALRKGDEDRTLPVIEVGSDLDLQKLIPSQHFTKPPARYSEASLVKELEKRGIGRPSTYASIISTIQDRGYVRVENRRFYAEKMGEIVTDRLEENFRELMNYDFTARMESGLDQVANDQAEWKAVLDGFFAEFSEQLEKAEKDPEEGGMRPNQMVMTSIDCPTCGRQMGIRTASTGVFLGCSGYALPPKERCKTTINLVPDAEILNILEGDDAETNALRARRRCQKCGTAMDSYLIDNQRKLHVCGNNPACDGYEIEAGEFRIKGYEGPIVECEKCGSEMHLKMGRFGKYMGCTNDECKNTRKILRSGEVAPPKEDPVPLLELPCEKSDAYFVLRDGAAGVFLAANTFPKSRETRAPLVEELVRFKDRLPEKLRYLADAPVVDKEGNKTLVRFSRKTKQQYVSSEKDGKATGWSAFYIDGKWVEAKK

Cytochrome P450 2D6 = Cytochrome P450 2D6 (Homo sapiens, UniProt P10635);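 also: CYP2D6 member of a cytochrome P450 panel assay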
Sequence of Cytochrome P450 2D6 (P10635 whole entry): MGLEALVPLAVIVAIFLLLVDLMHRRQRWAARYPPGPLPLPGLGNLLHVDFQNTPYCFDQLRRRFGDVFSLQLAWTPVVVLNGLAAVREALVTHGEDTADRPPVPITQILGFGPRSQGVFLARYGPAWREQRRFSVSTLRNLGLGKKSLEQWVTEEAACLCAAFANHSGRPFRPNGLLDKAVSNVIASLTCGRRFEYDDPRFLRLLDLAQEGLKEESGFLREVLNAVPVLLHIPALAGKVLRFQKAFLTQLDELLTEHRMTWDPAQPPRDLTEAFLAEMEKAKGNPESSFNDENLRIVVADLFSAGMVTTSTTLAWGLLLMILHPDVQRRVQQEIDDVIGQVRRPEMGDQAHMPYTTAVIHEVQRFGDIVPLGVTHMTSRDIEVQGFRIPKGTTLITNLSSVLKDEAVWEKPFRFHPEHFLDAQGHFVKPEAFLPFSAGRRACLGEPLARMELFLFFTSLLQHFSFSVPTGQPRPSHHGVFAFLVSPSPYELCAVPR

Cytochrome P450 2C9 = Cytochrome P450 2C9 (Homo sapiens, UniProt P11712)
[31] = THP-1 cell cytotoxicity, cytotoxicity control, set 4 (AID 504911); assay type: functional; settings: Mycobacterium tuberculosis
[32] = THP-1 cell cytotoxicity, cytotoxicity control, set 6 (AID 602433); assay type: functional; settings: Mycobacterium tuberculosis
[33] = THP-1 cell cytotoxicity, dose response, cytotoxicity control, set 3 (AID 504852); assay type: functional; settings: Mycobacterium tuberculosis

With `Cc1ccc(S(=O)(=O)N2CCOCC2)cc1NC(=O)COC(=O)CNC(=O)c1ccccc1` the EC50 [1] was 65 nM (active) and the EC50 [2] was 18 nM (active).
For `Cc1c(O)ccc2c(CC(=O)N[C@@H](Cc3c[nH]c4ccccc34)C(=O)O)cc(=O)oc12`, the AC50 [3] was 6760 nM (active).
In the case of `CCOC(=O)c1[nH]c(C)c(C(=O)N2CCc3ccccc32)c1C`, the EC50 [4] is reported as 1010 nM (active), the EC50 [5] is reported as 630 nM (inconclusive) and the EC50 [6] is reported as 4630 nM (inconclusive). The EC50 [7] was 1070 nM (active), the EC50 [8] was 353 nM (inconclusive) and the EC50 [9] was 2330 nM (active). For the same compound, the EC50 (BJ [10]) was 704 nM (inconclusive), the EC50 (cells) was 1220 nM (active) and the EC50 [11] was 4650 nM (active). For the same compound, the EC50 [12] was < 100 nM (active), the EC50 (BJ [13]) was 10800 nM (active) and the EC50 [14] was 2130 nM (active). For the same compound, the EC50 (BJ [15]) was 420 nM (inconclusive), the EC50 [16] was 656 nM (active) and the EC50 [17] was 1300 nM (active). The EC50 (BJ [18]) was 252 nM (active).
For `CCOc1ccc(/C=C2\CCCc3c2nc2ccccc2c3C(=O)O)cc1OC`, the IC50 (Beta-lactamase [19]) was 53100 nM (inactive), the IC50 (Beta-lactamase [20]) was 10900 nM (inactive) and the AC50 (ORF 73) was 908 nM (active). The EC50 (Insulin-degrading enzyme [21]) was > 54700 nM (inactive), the EC50 (Insulin-degrading enzyme [22]) was > 54700 nM (inactive) and the IC50 (HEK293 [23]) was > 89200 nM (inactive). For the same compound, the EC50 (HEK293 [24]) was 5380 nM (active).
With `CCCCCn1c(=O)c2ccccc2n2c(S)nnc12` the IC50 (Large T antigen) was 16800 nM (active), the IC50 [25] was > 100000 nM (inactive) and the IC50 [26] was 1470 nM (active). The IC50 [27] was > 99000 nM (inactive), the IC50 [28] was 1600 nM (active) and the IC50 [29] was 1200 nM (active). For the same compound, the IC50 [30] was > 99000 nM (inactive).
With `Clc1cccc(CSc2nnc(-c3sccc3-n3cccc3)o2)c1` the AC50 (DNA topoisomerase) was 5150 nM (active), the AC50 (Cytochrome P450 2D6) was 398 nM (inconclusive) and the AC50 (Cytochrome P450 2C9) was “inconclusive”.
With `CC(C)CCNC(=O)CSc1nc(O)c2ccccc2n1` the CC50 [31] was > 100000 nM (active), the CC50 [32] was > 100000 nM (active) and the CC50 [33] was > 100000 nM (active).
